Values joined by “and” are separate entries in the source; they are usually repeats but may differ in a detail not shown here. Equal values may be shown once.
Legend:
[1] = system: E. coli (Juhl); test: serial dilution in synthetic medium in test tubes, MIC and F.I.C. index (Table II); format: cell-based; settings: for MIC ppm Peptide: peptide alone, E. coli (Juhl), 35-37° C., 16-20 hours
Protocol: The halogenated peptides alone, the antibiotic alone or mixtures of the halogenated peptides and selected antibiotics are prepared in sterile concentrated aqueous solutions at the desired ratios. Serial dilutions are made to give a range of concentrations of the test substances. Samples of the dilutions are mixed with an appropriate sterile synthetic medium in test tubes. The tubes are then inoculated with an appropriate test organism and incubated at 35°-37° C. for 16-20 hours. Minimum inhibitory concentrations, i.e., that concentration which inhibits visible growth, are read and the fractional inhibitory concentration indices (F.I.C.) are calculated. In all instances, E. coli (Juhl) was used as the infecting microorganism.

[2] = system: E. coli (Juhl); test: mouse protection test, CD50 (Table III); format: in vivo
Protocol: (§1) Charles River mice, weighing approximately 20 g. each, are infected intraperitoneally with 10-100 times the LD of the infecting organism. At predetermined intervals post-infection, e.g., 1 and 5 hours, mice are dosed subcutaneously with graded doses of the halogenated peptide, antibiotic and combination thereof. The number of mice surviving each treatment for 7 days post-infection is observed and the CD50 is calculated. The fractional inhibitory concentration (F.I.C.) for each combination is calculated in the usual manner.
(§2) In this table, the following infecting microorganisms were used:
(§3) The infecting organisms are listed by the above code; the compounds are listed by their Example number. In all instances, the dipeptide and D-cycloserine were tested at a ratio of 10:1. The CD50 combination column lists only the amount of peptide present; the D-cycloserine amount is 10% of the listed amount.

[3] = system: S. aureus (Smith); test: mouse protection test, CD50 (Table III); format: in vivo; settings: for F.I.C. Index / CD50 (mg/kg) Combination: S. aureus (Smith) in mice, dipeptide:D-cycloserine 10:1; for CD50 (mg/kg) Combination: amount of peptide only listed, D-cycloserine is 10% of it; for CD50 (mg/kg) Peptide: mice infected i.p. with S. aureus (Smith), dosed subcutaneously, 7 days survival, peptide alone
Protocol: as §1, §2, §3

[4] = combination with D-cycloserine, ratio Pep/Antib. 1:1
[5] = combination with D-cycloserine, ratio Pep/Antib. 1:8
[6] = combination with carbencillin, ratio Pep/Antib. 1:1
[7] = combination with carbencillin, ratio Pep/Antib. 1:8
[8] = combination with D-cycloserine, ratio Pep/Antib. 8:1

Compound | F.I.C. Index [1, 4] | MIC ppm Pep/Antib., antibiotic part [1, 4] | MIC ppm Pep/Antib., peptide part [1, 4] | F.I.C. Index [1, 5] | MIC ppm Pep/Antib., antibiotic part [1, 5] | MIC ppm Pep/Antib., peptide part [1, 5] | MIC ppm Peptide [1] | F.I.C. Index [3] | CD50 (mg/kg) Combination [3] | CD50 (mg/kg) Peptide [3] | further results
CC(C)C[C@H](N)C(=O)N[C@H](CF)C(=O)O [Example 4, L-Leu-βF-D-Ala] | 0.008 | 0.1 ppm | 0.1 ppm | 0.06 | 0.78 ppm | 0.1 ppm | > 200 ppm and > 100 ppm | 0.25 | 1.6 mg/kg | 7.4 mg/kg | F.I.C. Index [1, 6]: 0.25; MIC ppm Pep/Antib., antibiotic part [1, 6]: 1.56 ppm; MIC ppm Pep/Antib., peptide part [1, 6]: 1.56 ppm; F.I.C. Index [1, 7]: 2.0; MIC ppm Pep/Antib., antibiotic part [1, 7]: 12.5 ppm; MIC ppm Pep/Antib., peptide part [1, 7]: 1.56 ppm; F.I.C. Index ([2]; E. coli (Juhl) in mice, dipeptide:D-cycloserine 10:1): 0.41; CD50 (mg/kg) Combination ([2]; E. coli (Juhl) in mice, dipeptide:D-cycloserine 10:1, amount of peptide only listed, D-cycloserine is 10% of it): 10.1 mg/kg; CD50 (mg/kg) Peptide ([2]; mice infected i.p. with E. coli (Juhl), dosed subcutaneously, 7 days survival, peptide alone): 25.9 mg/kg
N[C@@H](Cc1ccccc1)C(=O)N[C@H](CF)C(=O)O [Example 5, L-Phe-βF-D-Ala] | – | – | – | – | – | – | – | 0.99 | 13.6 mg/kg | 14.4 mg/kg | –
NCCCC[C@H](N)C(=O)N[C@H](CF)C(=O)O [Example 6, L-Lys-βF-D-Ala] | – | – | – | – | – | – | – | 0.08 and 0.13 | 6.8 mg/kg and 4.0 mg/kg | – | –
O=C(N[C@H](CF)C(=O)O)[C@@H]1CCCN1 [Example 7, L-Pro-βF-D-Ala] | – | – | – | – | – | – | – | 0.35 | 3.7 mg/kg | 12.2 mg/kg | –
N[C@@H](CO)C(=O)N[C@H](CF)C(=O)O [Example 8, L-Ser-βF-D-Ala] | 0.008 | 0.1 ppm | 0.1 ppm | 0.03 | 0.39 ppm | 0.05 ppm | > 800 ppm | 0.13 | 5.2 mg/kg | 48 mg/kg | F.I.C. Index [1, 8]: 0.004; MIC ppm Pep/Antib., antibiotic part [1, 8]: 0.05 ppm; MIC ppm Pep/Antib., peptide part [1, 8]: 0.39 ppm

— patent US4264590A, “Antibacterial peptide” (Abbott Laboratories, priority 1980, dated 1981)
